How the values were obtained:
[1] = target: Galectin-3 (Homo sapiens, UniProt P17931); assay: fluorescence anisotropy assay, compound as inhibitor of galectin / fluorescein tagged saccharide probe interaction; type: binding
From the text: (§1) Anal. Biochem. 334: 36-47, (Sörme et al., 2004) and Monovalent interactions of Galectin-1 By Salomonsson, Emma; Larumbe, Amaia; Tejler, Johan; Tullberg, Erik; Rydberg, Hanna; Sundin, Anders; Khabut, Areej; Frejd, Torbjorn; Lobsanov, Yuri D.; Rini, James M.; et al, From Biochemistry (2010), 49(44), 9518-9532, (Salomonsson et al., 2010).

[2] = target: Galectin-1 (Homo sapiens, UniProt P09382); assay: as above; type: binding
From the text: as §1

Sequence of Galectin-1 (P09382 whole entry): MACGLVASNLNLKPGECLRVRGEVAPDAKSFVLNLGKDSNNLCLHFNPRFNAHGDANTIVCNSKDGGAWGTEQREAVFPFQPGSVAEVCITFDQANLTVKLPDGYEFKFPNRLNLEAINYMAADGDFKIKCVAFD
Sequence of Galectin-3 (P17931 whole entry): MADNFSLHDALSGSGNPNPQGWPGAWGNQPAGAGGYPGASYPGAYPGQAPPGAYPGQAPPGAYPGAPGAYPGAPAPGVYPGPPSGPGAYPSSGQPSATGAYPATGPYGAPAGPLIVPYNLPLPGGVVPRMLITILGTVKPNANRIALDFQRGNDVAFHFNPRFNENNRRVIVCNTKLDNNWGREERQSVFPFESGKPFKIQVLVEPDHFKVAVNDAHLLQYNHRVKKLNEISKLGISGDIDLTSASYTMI

Row | SMILES | Kd [1] [nM] | Kd [2] [nM]
1 | CO[C@@H]1[C@@H](n2cc(-c3nc(Cl)c(Cl)s3)nn2)[C@@H](O)[C@@H](CO)O[C@@H]1Sc1cc(Br)cnc1C#N [Example 55, 5-Bromo-2-cyanopyridin-3-yl 3-[4-(4,5-dichlorothiazol-2-yl)-1H-1,2,3-triazol-1-yl]-3-deoxy-2-O-methyl-1-thio-α-D-galactopyranoside] | 28 | 150
2 | CO[C@@H]1[C@@H](n2cc(-c3nccs3)nn2)[C@@H](O)[C@@H](CO)O[C@@H]1Sc1cc(Br)ccc1C#N [Example 56, 5-Bromo-2-cyanophenyl 3-deoxy-2-O-methyl-3-[4-(2-thiazolyl)-1H-1,2,3-triazol-1-yl]-1-thio-α-D-galactopyranoside] | 2100 | 96
3 | CO[C@@H]1[C@@H](n2cc(-c3nc(Cl)cs3)nn2)[C@@H](O)[C@@H](CO)O[C@@H]1Sc1cc(Br)ccc1C#N [Example 57, 5-Bromo-2-cyanophenyl 3-[4-(4-chlorothiazol-2-yl)-1H-1,2,3-triazol-1-yl]-3-deoxy-2-O-methyl-1-thio-α-D-galactopyranoside] | 140 | 21
4 | CO[C@@H]1[C@@H](n2cc(-c3csc(O)n3)nn2)[C@@H](O)[C@@H](CO)O[C@@H]1Sc1cc(Br)ccc1C#N [Example 58, 5-Bromo-2-cyanophenyl 3-deoxy-3-[4-(2-hydroxythiazol-4-yl)-1H-1,2,3-triazol-1-yl]-2-O-methyl-1-thio-α-D-galactopyranoside] | 2000 | 22
5 | CO[C@@H]1[C@@H](n2cc(-c3csc(N)n3)nn2)[C@@H](O)[C@@H](CO)O[C@@H]1Sc1cc(Br)ccc1C#N [Example 59, 5-Bromo-2-cyanophenyl 3-[4-(2-aminothiazol-4-yl)-1H-1,2,3-triazol-1-yl]-3-deoxy-2-O-methyl-1-thio-α-D-galactopyranoside] | 2200 | 54
6 | CNC(=O)c1ccc(Br)cc1S[C@H]1OC(CO)[C@H](O)C(n2cc(-c3nc(Cl)cs3)nn2)C1OC (stereo partly drawn) [Example 60, 5-Bromo-2-(N-methyl-carbonyl)phenyl 3-[4-(4-chlorothiazol-2-yl)-1H-1,2,3-triazol-1-yl]-3-deoxy-2-O-methyl-1-thio-α-D-galactopyranoside] | 180 | 39
7 | CNC(=O)c1ccc(Br)cc1S[C@H]1OC(CO)[C@H](O)C(n2cc(-c3nccs3)nn2)C1OC (stereo partly drawn) [Example 61, 5-Bromo-2-(N-methyl-carbonyl)phenyl 3-deoxy-2-O-methyl-3-[4-(2-thiazolyl)-1H-1,2,3-triazol-1-yl]-1-thio-α-D-galactopyranoside] | 3000 | 80
8 | CNC(=O)c1ccc(Cl)cc1S[C@H]1OC(CO)[C@H](O)C(n2cc(-c3nccs3)nn2)C1OC (stereo partly drawn) [Example 62, 5-Chloro-2-(N-methyl-carbonyl)phenyl 3-deoxy-2-O-methyl-3-[4-(2-thiazolyl)-1H-1,2,3-triazol-1-yl]-1-thio-α-D-galactopyranoside] | 3100 | 78
9 | CO[C@@H]1[C@@H](n2cc(-c3nc(C)cs3)nn2)[C@@H](O)[C@@H](CO)O[C@@H]1Sc1cc(Br)ccc1C#N [Example 63, 5-Bromo-2-cyanophenyl 3-deoxy-3-[4-(4-methylthiazol-2-yl)-1H-1,2,3-triazol-1-yl]-2-O-methyl-1-thio-α-D-galactopyranoside] | 2900 | 54
10 | CO[C@@H]1[C@@H](n2cc(-c3nc(C)c(Cl)s3)nn2)[C@@H](O)[C@@H](CO)O[C@@H]1Sc1cc(Br)cnc1C#N [Example 64, 5-Bromo-2-cyanopyridin-3-yl 3-[4-(5-chloro-4-methylthiazol-2-yl)-1H-1,2,3-triazol-1-yl]-3-deoxy-2-O-methyl-1-thio-α-D-galactopyranoside] | 220 | 280
11 | CO[C@@H]1[C@@H](n2cc(-c3nc(C)c(Cl)s3)nn2)[C@@H](O)[C@@H](CO)O[C@@H]1Sc1cc(Br)ccc1C#N [Example 65, 5-Bromo-2-cyanophenyl 3-[4-(5-chloro-4-methylthiazol-2-yl)-1H-1,2,3-triazol-1-yl]-3-deoxy-2-O-methyl-1-thio-α-D-galactopyranoside] | 240 | 460
12 | CO[C@@H]1[C@@H](n2cc(-c3nccs3)nn2)[C@@H](O)[C@@H](CO)O[C@@H]1Sc1cc(Cl)ccc1Cl [Example 66, 2,5-Dichlorophenyl 3-deoxy-2-O-methyl-3-[4-(2-thiazolyl)-1H-1,2,3-triazol-1-yl]-1-thio-α-D-galactopyranoside] | 4100 | 220
13 | CO[C@@H]1[C@@H](n2cc(-c3nccs3)nn2)[C@@H](O)[C@@H](CO)O[C@@H]1Sc1cc(Br)ccc1Cl [Example 67, 5-Bromo-2-chlorophenyl 3-deoxy-2-O-methyl-3-[4-(2-thiazolyl)-1H-1,2,3-triazol-1-yl]-1-thio-α-D-galactopyranoside] | 3500 | 260
14 | CO[C@@H]1[C@@H](n2cc(-c3nccs3)nn2)[C@@H](O)[C@@H](CO)O[C@@H]1Sc1cc(Cl)ccc1F [Example 68, 5-Chloro-2-fluorophenyl 3-deoxy-2-O-methyl-3-[4-(2-thiazolyl)-1H-1,2,3-triazol-1-yl]-1-thio-α-D-galactopyranoside] | 4400 | 250
15 | CO[C@@H]1[C@@H](n2cc(-c3nc(C)cs3)nn2)[C@@H](O)[C@@H](CO)O[C@@H]1Sc1cc(Br)ccc1F [Example 69, 5-Bromo-2-fluorophenyl 3-deoxy-3-[4-(4-methylthiazol-2-yl)-1H-1,2,3-triazol-1-yl]-2-O-methyl-1-thio-α-D-galactopyranoside] | 12000 | 650
16 | N#Cc1ncc(Cl)cc1S[C@H]1O[C@H](CO)[C@H](O)[C@H](n2cc(-c3csc(Cl)n3)nn2)[C@H]1O [Example 70, 5-Chloro-2-cyanopyridin-3-yl 3-[4-(2-chlorothiazol-4-yl)-1H-1,2,3-triazol-1-yl]-3-deoxy-1-thio-α-D-galactopyranoside] | 420 | 330

Results, then the molecule that gave them:

Row | Kd [1] [nM] | Kd [2] [nM] | SMILES
17 | 3600 | 120 | CCO[C@@H]1[C@@H](n2cc(-c3nccs3)nn2)[C@@H](O)[C@@H](CO)O[C@@H]1Sc1cc(Cl)cnc1C#N [Example 71, 5-Chloro-2-cyanopyridin-3-yl 3-deoxy-2-O-ethyl-3-[4-(2-thiazolyl)-1H-1,2,3-triazol-1-yl]-1-thio-α-D-galactopyranoside]
18 | 3000 | 440 | CCO[C@@H]1[C@@H](n2cc(-c3csc(N)n3)nn2)[C@@H](O)[C@@H](CO)O[C@@H]1Sc1cc(Cl)cnc1C#N [Example 72, 5-Chloro-2-cyanopyridin-3-yl 3-[4-(2-aminothiazol-4-yl)-1H-1,2,3-triazol-1-yl]-3-deoxy-2-O-ethyl-1-thio-α-D-galactopyranoside]
19 | 3200 | 56 | CO[C@@H]1[C@@H](n2cc(-c3csc(N)n3)nn2)[C@@H](O)[C@@H](CO)O[C@@H]1Sc1cc(Cl)ccc1C#N [Example 73, 5-Chloro-2-cyanophenyl 3-[4-(2-aminothiazol-4-yl)-1H-1,2,3-triazol-1-yl]-3-deoxy-2-O-methyl-1-thio-α-D-galactopyranoside]
20 | 11300 | 360 | Nc1nc(-c2cn([C@@H]3[C@@H](O)[C@@H](Sc4cc(Cl)cnc4-c4ncc[nH]4)O[C@H](CO)[C@@H]3O)nn2)cs1 [Example 74, 5-Chloro-2-(1H-imidazol-2-yl)pyridin-3-yl 3-[4-(2-aminothiazol-4-yl)-1H-1,2,3-triazol-1-yl]-3-deoxy-1-thio-α-D-galactopyranoside]
21 | 7700 | 130 | OC[C@H]1O[C@H](Sc2cc(Cl)cnc2-c2ncc[nH]2)[C@H](O)[C@@H](n2cc(-c3csc(O)n3)nn2)[C@H]1O [Example 75, 5-Chloro-2-(1H-imidazol-2-yl)pyridin-3-yl 3-deoxy-3-[4-(2-hydroxythiazol-4-yl)-1H-1,2,3-triazol-1-yl]-1-thio-α-D-galactopyranoside]
22 | 150 | 10 | CO[C@@H]1[C@@H](n2cc(-c3nc(Cl)cs3)nn2)[C@@H](O)[C@@H](CO)O[C@@H]1Sc1cc(Cl)cnc1-c1ccccn1 [Example 76, 5-Chloro-2-(pyridin-2-yl)-pyridin-3-yl 3-[4-(4-chlorothiazol-2-yl)-1H-1,2,3-triazol-1-yl]-3-deoxy-2-O-methyl-1-thio-α-D-galactopyranoside]
23 | 860 | 830 | Cc1cnc(C#N)c(S[C@H]2O[C@H](CO)[C@H](O)[C@H](n3cc(-c4nc(Cl)cs4)nn3)[C@H]2O)c1 [Example 77, 2-Cyano-5-methylpyridin-3-yl 3-[4-(4-chlorothiazol-2-yl)-1H-1,2,3-triazol-1-yl]-3-deoxy-1-thio-α-D-galactopyranoside]
24 | 7200 | 520 | Nc1nc(-c2cn([C@H]3[C@@H](O)[C@@H](CO)O[C@H](Sc4ccc(Cl)c(Cl)c4)[C@@H]3OCC(F)(F)F)nn2)cs1 [Example 78, 3,4-Dichlorophenyl 3-[4-(2-aminothiazol-4-yl)-1H-1,2,3-triazol-1-yl]-3-deoxy-2-O-(2,2,2-trifluoroethyl)-1-thio-α-D-galactopyranoside]
25 | 6800 | 460 | OC[C@H]1O[C@H](Sc2ccc(Cl)c(Cl)c2)[C@H](OCC(F)(F)F)[C@@H](n2cc(-c3csc(O)n3)nn2)[C@H]1O [Example 79, 3,4-Dichlorophenyl 3-deoxy-2-O-(2,2,2-trifluoroethyl)-3-[4-(2-hydroxythiazol-4-yl)-1H-1,2,3-triazol-1-yl]-1-thio-α-D-galactopyranoside]
26 | 360 | 310 | C#Cc1cncc(S[C@H]2O[C@H](CO)[C@H](O)[C@H](n3cc(-c4nc(Cl)cs4)nn3)[C@H]2O)c1 [Example 80, 5-Ethynylpyridin-3-yl 3-[4-(4-chlorothiazol-2-yl)-1H-1,2,3-triazol-1-yl]-3-deoxy-1-thio-α-D-galactopyranoside]

Reference: patent publication US12441754B2, “Galactoside inhibitor of galectins” (GALECTO BIOTECH AB, priority 2019, dated 2025)
